Patent publication US20220087996A1, “Histone acetylase p300 inhibitor and use thereof” (HINOVA PHARMACEUTICALS INC., priority 2018, published 2022)

Legend:
histone acetylase p300 = molecular target: T1, histone acetylase p300 (Homo sapiens, UniProt Q09472); experiment: Inhibitory activity on histone acetylase p300 (radioisotope FlashPlate); type: biochemical; conditions: enzyme 0.2 nM, peptide substrate 600 nM, [3H]-Ac-CoA 250 nM; read-out: IC50 against P300
T1 construct: purchased BPS
Source text: Using the radioisotope FlashPlate technology, the half inhibitory concentration (IC50) of the compound according to the present invention was detected against histone acetylase p300 (purchased from BPS). […] Under the catalysis of histone acetylase p300, [3H]—Ac group in the isotope-labeled [3H]-Ac-CoA was transferred to the biotinylated histone polypeptide substrate (purchased from GL Biochem Ltd.), and then the biotinylated histone peptide substrate bound to the streptavidin on the FlashPlate board, so that the isotope was close enough to the FlashPlate board. Thus, the radiation energy of isotope could convert the scintillation fluid coated on the FlashPlate board into photons, that was able to be detected. Detailed procedures were as follows:
• 1× reaction buffer: 50 mM Tris-HCl, pH 7.5; 0.01% Tween-20 • Reaction stop solution: 750 μM Ac-CoA solution
Each test compound was dissolved into 10 mM with 100% DMSO, and then each compound was diluted to the desired concentration in Echo 384-well plate. […] 200 nl of 100% DMSO was transferred into the well as the negative control.
p300 was added to 1× reaction buffer to form a 2× enzyme solution (the final concentration of enzyme being 0.2 nM).
The peptide substrate and [3H]-Ac-CoA were added to the 1-fold reaction buffer, to form a 2-fold substrate solution (the final concentration of the substrate being 600 nM and 250 nM, respectively).
10 μl of 2-fold enzyme solution was added to the wells of 384-well reaction plate. […] The plate was centrifuged at 1000 rpm for 1 min and incubated at room temperature for 15 min.
10 μl of 2-fold substrate solution was added to each well of 384-well reaction plate. The plate was centrifuged at 1000 rpm for 1 min, and then reacted at 25° C. for 60 min.
10 μl of reaction stop solution was added to each well of 384-well reaction plate to stop the reaction. 25 μL solution was collected from each well of the test plate and transferred to Flashplate, that was placed at room temperature for 1 h. Then, Flashplate plate was washed three times with 0.1% Tween-20 solution.
4) Reading Data with MicroBeta 2
The data were copied from Microbeta 2. […] The maximum value is the conversion rate of the control DMSO, and the minimum value is the conversion rate of the control without enzyme activity.
The data were imported into Graph Pad Prism5, and the formula “log(inhibitor) vs. response−Variable slope” was used to perform curve fitting, to obtain the half inhibitory concentration (IC50).

CWR22RV1 cells [1] = experiment: Inhibition of proliferation of CWR22RV1 cells (CCK-8); type: cell-based, human; conditions: 6 days culture
In short: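 Proliferation read-out was CCK-8 absorbance at 450 nm after 2.5 h, following 6-day culture with compound. Each well held 1500 CWR22RV1 cells; the 3-fold, 9-point series started at a final 10 μM in 0.1% DMSO. Dose-response-inhibition fit gave the IC50.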

CWR22RV1 cells [2] = experiment: Compound in combination with CDK4/6 inhibitor palbociclib on proliferation of CWR22RV1 cells; type: cell-based, human; conditions: Homo sapiens, CWR22Rv1, single agent; read-out: IC50 against the activity of CWR22RV1 cells
Protocol: The IC50 values (nM) of the compound according to the present invention, palbociclib, and the combination of the compound according to the present invention and palbociclib against CWR22RV1 cell proliferation were tested and calculated, and the detailed procedures were as follows:
(§1) 1) CWR22RV1 cells were subcultured in cell culture medium, and the cells in good growth condition were seeded in a 96-well plate, 60 μL for each well, and the cell number in each well was 2000. The plate was incubated overnight in a 37° C., 5% CO2 cell incubator. 2) The drug was prepared as 10 mM stock solution with dimethyl sulfoxide (DMSO). Prior to use, the stock solution was diluted 3 times with DMSO, and then further diluted as 3-fold gradient to obtain 9 concentration gradients. Then, each concentration of compound was diluted 200 times with the culture solution (ensuring that the DMSO concentration in the culture system was 0.1%), and two replicate wells were set for each concentration. 20 μL of diluted compound solution was added to the cell culture well (with final concentrations of 10 μM, 3.3 μM, 1.1 μM . . . ). Palbociclib was diluted with culture medium to 500 nM, 150 nM, 50 nM, 5 nM, and 20 μL diluted compound solution was added to the corresponding cell culture wells (with a final concentration of 100 nM, 30 nM, 10 nM, 1 nM). The plate was gently shaken to mix. In addition, 3 negative control wells containing only cells and 3 blank control wells containing only culture medium were included (6 wells were each added 20 μL DMSO diluted 200 times with culture medium).
(§2) (1) After culturing for 6 days, 10 μL CCK-8 was added to each well, and the plate was continually cultured in a 37° C., 5% CO2 cell incubator for 2.5 h. (2) The absorbance (OD value) was detected at 450 nm using a multifunctional microplate reader. (3) The data were analyzed by Dose-response-inhibition equation in the software GraphPad Prism6, and the IC50 value was obtained.

MCF-7 cells = experiment: Compound in combination with CDK4/6 inhibitor palbociclib against proliferation of MCF-7 cells; type: cell-based; conditions: Homo sapiens, MCF7, single agent
Protocol: as §1, §2
Using the same method as Experimental example 4, CWR22RV1 cells were replaced with MCF-7 cells, and the IC50 values (nM) of the compound according to the present invention, palbociclib, as well as the combination of the compound according to the present invention and palbociclib against the proliferation of MCF-7 cells w ere tested and calculated.

[3] = Homo sapiens, CWR22Rv1, 144 h, read-out: IC50 against CWR22RV1 cells
[4] = Homo sapiens, CWR22Rv1, 144 h, read-out: IC50 against CWR22RV1 cells (text)

T1 sequence (Q09472 whole entry): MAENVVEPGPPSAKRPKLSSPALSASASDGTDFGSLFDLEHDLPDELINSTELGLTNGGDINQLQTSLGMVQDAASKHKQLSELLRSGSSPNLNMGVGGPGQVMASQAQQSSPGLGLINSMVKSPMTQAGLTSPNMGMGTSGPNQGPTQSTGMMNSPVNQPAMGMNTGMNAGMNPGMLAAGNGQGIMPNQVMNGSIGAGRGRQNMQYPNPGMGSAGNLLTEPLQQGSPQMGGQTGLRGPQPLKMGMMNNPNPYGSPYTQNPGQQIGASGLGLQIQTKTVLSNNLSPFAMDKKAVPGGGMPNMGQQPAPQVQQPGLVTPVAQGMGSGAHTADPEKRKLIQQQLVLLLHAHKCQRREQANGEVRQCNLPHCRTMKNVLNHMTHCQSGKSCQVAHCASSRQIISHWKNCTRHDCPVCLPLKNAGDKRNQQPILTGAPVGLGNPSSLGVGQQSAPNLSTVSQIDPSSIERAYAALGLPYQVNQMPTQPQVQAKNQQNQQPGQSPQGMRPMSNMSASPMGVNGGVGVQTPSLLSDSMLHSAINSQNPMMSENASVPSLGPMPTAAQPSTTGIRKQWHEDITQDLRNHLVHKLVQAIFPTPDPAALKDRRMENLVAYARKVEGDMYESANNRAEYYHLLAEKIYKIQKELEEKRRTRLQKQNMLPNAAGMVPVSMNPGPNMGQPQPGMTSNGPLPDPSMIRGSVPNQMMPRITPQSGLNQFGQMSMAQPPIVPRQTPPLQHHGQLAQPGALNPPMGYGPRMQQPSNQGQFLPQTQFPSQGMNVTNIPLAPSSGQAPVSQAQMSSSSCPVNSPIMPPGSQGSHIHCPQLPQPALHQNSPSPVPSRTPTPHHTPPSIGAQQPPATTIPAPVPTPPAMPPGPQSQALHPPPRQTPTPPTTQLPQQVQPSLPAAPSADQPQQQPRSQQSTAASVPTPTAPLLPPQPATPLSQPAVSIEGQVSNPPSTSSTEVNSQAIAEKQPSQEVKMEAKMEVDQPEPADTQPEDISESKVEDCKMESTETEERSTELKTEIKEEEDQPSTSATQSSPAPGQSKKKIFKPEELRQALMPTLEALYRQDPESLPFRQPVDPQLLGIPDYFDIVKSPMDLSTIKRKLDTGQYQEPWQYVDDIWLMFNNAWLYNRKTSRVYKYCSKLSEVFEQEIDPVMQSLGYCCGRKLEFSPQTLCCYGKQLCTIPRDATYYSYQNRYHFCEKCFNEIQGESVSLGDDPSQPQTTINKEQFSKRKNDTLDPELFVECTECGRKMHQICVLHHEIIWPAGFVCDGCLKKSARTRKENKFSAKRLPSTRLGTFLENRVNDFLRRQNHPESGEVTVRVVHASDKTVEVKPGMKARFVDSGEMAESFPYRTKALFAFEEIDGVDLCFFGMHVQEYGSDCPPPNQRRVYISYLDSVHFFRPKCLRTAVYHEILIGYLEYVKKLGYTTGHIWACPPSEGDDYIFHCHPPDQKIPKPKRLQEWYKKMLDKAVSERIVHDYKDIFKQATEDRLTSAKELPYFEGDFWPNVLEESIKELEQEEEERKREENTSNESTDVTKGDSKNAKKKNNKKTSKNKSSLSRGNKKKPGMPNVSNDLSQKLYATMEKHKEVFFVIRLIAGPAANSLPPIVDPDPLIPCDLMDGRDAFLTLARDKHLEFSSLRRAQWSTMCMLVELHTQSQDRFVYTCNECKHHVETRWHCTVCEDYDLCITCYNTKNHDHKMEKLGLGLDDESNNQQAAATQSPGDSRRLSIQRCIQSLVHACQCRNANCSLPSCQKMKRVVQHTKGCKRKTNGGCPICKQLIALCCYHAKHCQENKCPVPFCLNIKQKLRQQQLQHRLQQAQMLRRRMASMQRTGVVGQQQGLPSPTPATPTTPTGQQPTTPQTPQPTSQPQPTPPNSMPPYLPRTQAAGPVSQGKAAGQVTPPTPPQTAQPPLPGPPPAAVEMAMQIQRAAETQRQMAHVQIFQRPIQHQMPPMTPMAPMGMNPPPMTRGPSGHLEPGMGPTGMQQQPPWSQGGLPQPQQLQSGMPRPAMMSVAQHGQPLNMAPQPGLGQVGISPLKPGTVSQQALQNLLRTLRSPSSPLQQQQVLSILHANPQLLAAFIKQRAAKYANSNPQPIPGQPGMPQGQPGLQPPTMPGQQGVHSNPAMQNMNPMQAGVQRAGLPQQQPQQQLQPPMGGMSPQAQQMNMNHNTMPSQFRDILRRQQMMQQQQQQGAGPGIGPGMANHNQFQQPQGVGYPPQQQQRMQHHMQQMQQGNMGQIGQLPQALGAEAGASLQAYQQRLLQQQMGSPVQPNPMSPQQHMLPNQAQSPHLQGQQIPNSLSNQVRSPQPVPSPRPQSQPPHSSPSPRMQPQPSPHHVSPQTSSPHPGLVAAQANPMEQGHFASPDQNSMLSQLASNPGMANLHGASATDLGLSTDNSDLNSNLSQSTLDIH

| SMILES | IC50 (histone acetylase p300) [nM] | IC50 (CWR22RV1 cells [1]; [3]) [nM] | IC50 (CWR22RV1 cells [1]; [4]) [nM] | IC50 (CWR22RV1 cells [1]; read-out: IC50 against CWR22RV1 cells) [nM] | IC50 (CWR22RV1 cells [2]) [nM] | IC50 (MCF-7 cells) [nM] |
| --- | --- | --- | --- | --- | --- | --- |
| CC(=O)Nc1ccc2c(c1)CC[C@@]21OC(=O)N(CC(=O)N2[C@@H](C)CC[C@H]2c2ccc(F)cc2)C1=O [Example 114, N—((R)-3′-(2-((2S,5S)-2-(4-fluorophenyl)-5-methylpyrrolidin-1-yl)-2-oxoethyl)-2′,4′-dioxo-2,3-dihydrospiro[indene-1,5′-oxazolidine]-5-yl)acetamide] | 26 | 500 to 2000 |  |  |  |  |
| COC(=O)Nc1ccc2c(c1)CC[C@@]21OC(=O)N(CC(=O)N2[C@@H](C)CC[C@H]2c2ccc(F)cc2)C1=O [Example 115, ((R)-3′-(2-((2S,5S)-2-(4-fluorophenyl)-5-methylpyrrolidin-1-yl)-2-oxoethyl)-2′,4′-dioxo-2,3-dihydrospiro[indene-1,5′-oxazolidine]-5-yl)carbamic acid methyl ester] | 64 | > 2000 |  |  |  |  |
| CNC(=O)Nc1ccc2c(c1)CC[C@@]21OC(=O)N(CC(=O)N2[C@@H](C)CC[C@H]2C2CCC(F)(F)CC2)C1=O [Example 209, 1-((R)-3′-(2-((2S,5S)-2-(4,4-difluorocyclohexyl)-5-methylpyrrolidin-1-yl)-2-oxoethyl)-2′,4′-dioxo-2,3-dihydrospiro[indene-1,5′-oxazolidine]-5-yl)-3-methylurea] | 11 | ≤ 500 | ≤ 500 |  |  |  |
| CNC(=O)Nc1ccc2c(c1)CC[C@@]21OC(=O)N(CC(=O)N2[C@@H](C)CC[C@H]2c2ccc(F)c(Cl)c2)C1=O [Example 213, 1-((R)-3′-(2-((2S,5S)-2-(3-chloro-4-fluorophenyl)-5-methylpyrrolidin-1-yl)-2-oxoethyl)-2′,4′-dioxo-2,3-dihydrospiro[indene-1,5′-oxazolidine]-5-yl)-3-methylurea] | 13 |  | ≤ 500 | ≤ 500 |  |  |
| CNC(=O)Nc1ccc2c(c1)CC[C@@]21OC(=O)N(CC(=O)N2[C@@H](C)CC[C@H]2c2ccc(F)cc2F)C1=O [Example 217, 1-((R)-3′-(2-((2S,5S)-2-(2,4-difluorophenyl)-5-methylpyrrolidin-1-yl)-2-oxoethyl)-2′,4′-dioxo-2,3-dihydrospiro[indene-1,5′-oxazolidine]-5-yl)-3-methylurea] | 5.5 | ≤ 500 | ≤ 500 |  |  |  |
| CNC(=O)Nc1ccc2c(c1)CC[C@@]21OC(=O)N(CC(=O)N2CCC[C@H]2c2ccccc2)C1=O [Example 225, 1-((R)-2′,4′-dioxo-3′-(2-oxo-2-((S)-2-phenylpyrrolidin-1-yl)ethyl)-2,3-dihydrospiro[indene-1,5′-oxazolidine]-5-yl)-3-methylurea] | 67 | 500 to 2000 |  |  |  |  |
| CNC(=O)Nc1ccc2c(c1)CC[C@@]21OC(=O)N(CC(=O)N2CCCC2c2ccccc2OC)C1=O (stereo partly drawn) [Example 319, 1-((1R)-3′-(2-(2-(2-methoxyphenyl)pyrrolidin-1-yl)-2-oxoethyl)-2′,4′-dioxo-2,3-dihydrospiro[indene-1,5′-oxazolidine]-5-yl)-3-methylurea] | 84 | > 2000 |  |  |  |  |
| CNC(=O)Nc1ccc2c(c1)CC[C@@]21OC(=O)N(CC(=O)N2C(C)CCC2c2ccc(OC)cc2)C1=O (stereo partly drawn) [Example 350, 1-((1R)-3′-(2-(2-(4-methoxyphenyl)-5-methylpyrrolidin-1-yl)-2-oxoethyl)-2′,4′-dioxo-2,3-dihydrospiro[indene-1,5′-oxazolidine]-5-yl)-3-methylurea] | 33 | 500 to 2000 |  |  |  |  |
| CNC(=O)Nc1ccc2c(c1)CC[C@@]21OC(=O)N(CC(=O)N2[C@@H](COC)CC[C@H]2c2ccc(F)cc2)C1=O [Example 362, 1-(3′-(2-((2S,5R)-2-(4-fluorophenyl)-5-(methoxymethyl)pyrrolidin-1-yl)-2-oxoethyl)-2′,4′-dioxo-2,3-dihydrospiro[indene-1,5′-oxazolidine]-5-yl)-3-methylurea] | 15 | ≤ 500 | ≤ 500 |  |  |  |
| CNC(=O)Nc1ccc2c(c1)CC[C@@]21OC(=O)N(CC(=O)N2C(c3ccc(F)cc3F)CC[C@@H]2C)C1=O (stereo partly drawn) [Example 370, 1-((R)-3′-(2-((5S)-2-(2,4-difluorophenyl)-5-methylpyrrolidin-1-yl)-2-oxoethyl)-2′,4′-dioxo-2,3-dihydrospiro[indene-1,5′-oxazolidine]-5-yl)-3-methylurea] | 103 | > 2000 |  |  |  |  |
| C[C@H]1CC[C@@H](c2ccc(F)cc2)N1C(=O)CN1C(=O)O[C@@]2(CCc3cc(NC(=O)NC4CC4)ccc32)C1=O [Example 371, 1-((R)-3′-(2-((2S,5S)-2-(4-fluorophenyl)-5-methylpyrrolidin-1-yl)-2-oxoethyl)-2′,4′dioxo-2,3-dihydrospiro[indene-1,5-oxazolidine]-5-yl)-3-cyclopropylurea] | 3.1 | 500 to 2000 |  |  |  |  |
| CC(=O)c1c(C)c2cnc(Nc3ccc(N4CCNCC4)cn3)nc2n(C2CCCC2)c1=O [palbociclib, reference compound] |  |  |  |  | 66 | 34 |
